# Where two headings read alike, the source gives them in different places.
# System: RF strain of HIV-1 in CEM-SS cells
# Assay: HIV-1 cell protection assay (XTT dye reduction)
# Type: cell-based
# Details: Human immunodeficiency virus 1, CEM-SS, 144 h
# Protocol: HIV-1 Cell Protection Assay
# The antiviral activities of potential modulator compounds (test compounds) were determined in HIV-1 cell protection assays using the RF strain of HIV-1, CEM-SS cells, and the XTT dye reduction method (Weislow, O. S. et al., J. Natl. Cancer Inst. 81: 577-586 (1989)). Subject cells were infected with HIV-1 RF virus at an moi of 0.025 to 0.819 or mock infected with medium only and added at 2×10^4 cells per well into 96 well plates containing half-log dilutions of test compounds. Six days later, 50 μl of XTT solution (1 mg/ml XTT tetrazolium and […] phenazine methosulfate) were added to the wells and the plates were reincubated for four hours. Viability, as determined by the amount of XTT formazan produced, was quantified spectrophotometrically by absorbance at 450 nm. Data from CPE assays were expressed as the percent of formazan produced in compound-treated cells compared to formazan produced in wells of uninfected, compound-free cells. […] The therapeutic index was calculated by dividing the cytotoxicity (CC50) by the antiviral activity (EC50).
# [1] = HIV-1 RF, CEM-SS cells, XTT dye reduction, six days, read-out: EC50
Structure (SMILES),EC50 [1],EC50
"C=Cc1c(C(=O)NO)ncc2c1ccn2Cc1ccc(F)cc1 [Example 39, 1-(4-Fluorobenzyl)-N-hydroxy-4-vinyl-1H-pyrrolo[2,3-c]pyridine-5-carboxamide]",3.05 nM,–
"CCCN(CCO)Cc1cn(Cc2ccc(F)cc2)c2cnc(C(=O)NOCC)cc12 [Example 115, N-ethoxy-1-(4-fluorobenzyl)-3-{[(2-hydroxyethyl)(propyl)amino]methyl}-1H-pyrrolo[2,3-c]pyridine-5-carboxamide]",3700 nM,–
"CCONC(=O)c1cc2c(CN(C)CCCN(C)C)cn(Cc3ccc(F)cc3)c2cn1 [Example 116, 3-{[[3-(Dimethylamino)propyl](methyl)amino]methyl}-N-ethoxy-1-(4-fluorobenzyl)-1H-pyrrolo[2,3-c]pyridine-5-carboxamide]",3900 nM,–
"CCOCCOCc1cn(Cc2ccc(F)cc2)c2cnc(C(=O)NOC)cc12 [Example 121, 3-[(2-Ethoxyethoxy)methyl]-1-(4-fluorobenzyl)-N-methoxy-1H-pyrrolo[2,3-c]pyridine-5-carboxamide]",512 nM,–
"COCc1cn(Cc2ccc(F)cc2)c2cnc(C(=O)N(C)O)cc12 [Example 122, 1-(4-Fluorobenzyl)-AN-hydroxy-3-(methoxymethyl)-N-methyl-1H-pyrrolo[2,3-c]pyridine-5-carboxamide]",–,242 nM
